Test results published in US20190328691A1, “ANTIBIOTIC THERAPY” (Boulos & Cooper Pharmaceuticals Pty Ltd, priority 2015, published 2019).
Like-named read-outs stand apart in the source and are kept apart here.

How the values were obtained:
[1] = tested on: Staphylococcus aureus (BAA-1717); test: Checkerboard combination / MIC assay with S. aureus BAA-1717 (MRSA); assay type: cell-based; conditions: for Effect of individual antibiotic combinations: S. aureus BAA-1717
Procedure, shortened: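 CLSI broth microdilution checkerboard in CAMHB (5×10^5 CFU/mL, 2% DMSO final). Ramizol or Chlopam was tested in 11-point two-fold series against 7-point antibiotic titrations, starting at 4× MIC.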

[2] = tested on: Staphylococcus aureus (ATCC 29213); test: Checkerboard combination / MIC assay with S. aureus ATCC 29213; assay type: cell-based; conditions: S. aureus ATCC 29213; for MIC: Staphylococcus aureus, read-out: MIC of antibiotic alone
Procedure, shortened: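 CLSI broth microdilution checkerboard in CAMHB, final inoculum 5×10^5 CFU/mL, 2% DMSO. Ramizol or Chlopam (11-point 2-fold) crossed with commercial antibiotics (7-point), each starting at 4× MIC; synergy assessed by FIC index (sum of MIC-in-combination/MIC-alone ratios; ≤0.5 synergy, >4 antagonism).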

SMILES: CC(=O)NC[C@H]1CN(c2ccc(N3CCOCC3)c(F)c2)C(=O)O1 [Linezolid]
- FICI of combination with Chlopam ([1]; Chlopam 0.001953 μg/mL + labelled antibiotic at MIC of same cell, S. aureus ATCC BAA-1717): 1.0
- MIC of antibiotic in combination with Chlopam ([1]; Chlopam 0.001953 μg/mL, S. aureus ATCC BAA-1717): 1 µg/mL
- FICI of combination with Chlopam ([1]; Chlopam 0.003906 μg/mL + labelled antibiotic at MIC of same cell, S. aureus ATCC BAA-1717): 1.0
- MIC of antibiotic in combination with Chlopam ([1]; Chlopam 0.003906 μg/mL, S. aureus ATCC BAA-1717): 1 µg/mL
- FICI of combination with Chlopam ([1]; Chlopam 0.0078125 μg/mL + labelled antibiotic at MIC of same cell, S. aureus ATCC BAA-1717): 1.0
- MIC of antibiotic in combination with Chlopam ([1]; Chlopam 0.0078125 μg/mL, S. aureus ATCC BAA-1717): 1 µg/mL
- FICI of combination with Chlopam ([1]; Chlopam 0.015625 μg/mL + labelled antibiotic at MIC of same cell, S. aureus ATCC BAA-1717): 1.0
- MIC of antibiotic in combination with Chlopam ([1]; Chlopam 0.015625 μg/mL, S. aureus ATCC BAA-1717): 1 µg/mL
- Effect of individual antibiotic combinations ([1]; Chlopam and Linezolid: 0.001953 and 1, 0.003901 and 1, 0.0078125 and 1, 0.015625 and 1 μg/mL): additive effect
- FICI of combination with Ramizol ([1]; Ramizol 0.015625 μg/mL + labelled antibiotic at MIC of same cell, S. aureus ATCC BAA-1717): 1.0
- MIC of antibiotic in combination with Ramizol ([1]; Ramizol 0.015625 μg/mL, S. aureus ATCC BAA-1717): 1 µg/mL
- FICI of combination with Ramizol ([1]; Ramizol 0.03125 μg/mL + labelled antibiotic at MIC of same cell, S. aureus ATCC BAA-1717): 1.0
- MIC of antibiotic in combination with Ramizol ([1]; Ramizol 0.03125 μg/mL, S. aureus ATCC BAA-1717): 1 µg/mL
- FICI of combination with Ramizol ([1]; Ramizol 0.0625 μg/mL + labelled antibiotic at MIC of same cell, S. aureus ATCC BAA-1717): 1.0
- MIC of antibiotic in combination with Ramizol ([1]; Ramizol 0.0625 μg/mL, S. aureus ATCC BAA-1717): 1 µg/mL
- FICI of combination with Ramizol ([1]; Ramizol 0.125 μg/mL + labelled antibiotic at MIC of same line, S. aureus ATCC BAA-1717): 1.0
- MIC of antibiotic in combination with Ramizol ([1]; Ramizol 0.125 μg/mL, S. aureus ATCC BAA-1717): 1 µg/mL
- Effect of individual antibiotic combinations ([1]; Ramizol and linezolid: 0.015625 and 1, 0.03125 and 1, 0.0625 and 1, 0.125 and 1 μg/mL): additive effect
- MIC ([1]; Staphylococcus aureus, ATCC BAA-1717 / BAA-1717, Table 4, checkerboard series with Chlopam, S. aureus ATCC BAA-1717, read-out: MIC of antibiotic alone): 1 µg/mL
- MIC of antibiotic alone ([1]; Table 7, checkerboard series with Ramizol, S. aureus ATCC BAA-1717): 1 µg/mL
- mean FICI of combination with Chlopam ([1]; labelled antibiotic + Chlopam, mean of all pairwise combinations, S. aureus ATCC BAA-1717): 1.2
- mean FICI of combination with Ramizol ([1]; labelled antibiotic + Ramizol, mean of all pairwise combinations, S. aureus ATCC BAA-1717): 1.2
- FICI of combination with Chlopam ([2]; Chlopam 0.003906 μg/mL + labelled antibiotic at MIC of same cell): 1.0
- MIC of antibiotic in combination with Chlopam ([2]; Chlopam 0.003906 μg/mL): 2 µg/mL
- FICI of combination with Chlopam ([2]; Chlopam 0.0078125 μg/mL + labelled antibiotic at MIC of same cell): 1.0
- MIC of antibiotic in combination with Chlopam ([2]; Chlopam 0.0078125 μg/mL): 2 µg/mL
- FICI of combination with Chlopam ([2]; Chlopam 0.015625 μg/mL + labelled antibiotic at MIC of same cell): 1.0
- MIC of antibiotic in combination with Chlopam ([2]; Chlopam 0.015625 μg/mL): 2 µg/mL
- FICI of combination with Chlopam ([2]; Chlopam 0.125 μg/mL + labelled antibiotic at MIC of same line): 0.8
- MIC of antibiotic in combination with Chlopam ([2]; Chlopam 0.125 μg/mL): 1 µg/mL
- FICI of combination with Chlopam ([2]; Chlopam 0.25 μg/mL + labelled antibiotic at MIC of same cell): 0.8
- MIC of antibiotic in combination with Chlopam ([2]; Chlopam 0.25 μg/mL): 0.5 µg/mL
- FICI of combination with Chlopam ([2]; Chlopam 0.5 μg/mL + labelled antibiotic at MIC of same cell): 0.6
- MIC of antibiotic in combination with Chlopam ([2]; Chlopam 0.5 μg/mL): 0.25 µg/mL
- Effect of individual antibiotic combinations ([2]; Chlopam and Linezolid: 0.003901 and 2, 0.0078125 and 2, 0.015625 and 2, 0.125 and 1, 0.25 and 0.5, 0.5 and 0.25 μg/mL): additive effect
- FICI of combination with Ramizol ([2]; Ramizol 0.015625 μg/mL + labelled antibiotic at MIC of same cell): 1.0
- MIC of antibiotic in combination with Ramizol ([2]; Ramizol 0.015625 μg/mL): 4 µg/mL
- FICI of combination with Ramizol ([2]; Ramizol 0.03125 μg/mL + labelled antibiotic at MIC of same cell): 1.0
- MIC of antibiotic in combination with Ramizol ([2]; Ramizol 0.03125 μg/mL): 4 µg/mL
- FICI of combination with Ramizol ([2]; Ramizol 0.0625 μg/mL + labelled antibiotic at MIC of same cell): 1.0
- MIC of antibiotic in combination with Ramizol ([2]; Ramizol 0.0625 μg/mL): 4 µg/mL
- FICI of combination with Ramizol ([2]; Ramizol 0.125 μg/mL + labelled antibiotic at MIC of same cell): 1.0
- MIC of antibiotic in combination with Ramizol ([2]; Ramizol 0.125 μg/mL): 4 µg/mL
- FICI of combination with Ramizol ([2]; Ramizol 0.25 μg/mL + labelled antibiotic at MIC of same cell): 1.0
- MIC of antibiotic in combination with Ramizol ([2]; Ramizol 0.25 μg/mL): 4 µg/mL
- Effect of individual antibiotic combinations ([2]; Ramizol and linezolid: 0.015625 and 4, 0.03125 and 4, 0.0625 and 4, 0.125 and 4, 0.25 and 4 μg/mL): additive effect
- MIC ([2]; ATCC29213, Table 4, checkerboard series with Chlopam): 2 µg/mL
- MIC ([2]; ATCC29213, Table 7, checkerboard series with Ramizol): 4 µg/mL
- Effect of the combinations with Chlopam (by mean FICI) ([2]; labelled antibiotic + Chlopam): additive effect
- mean FICI of combination with Chlopam ([2]; labelled antibiotic + Chlopam, mean of all pairwise combinations): 0.9
- mean FICI of combination with Ramizol ([2]; labelled antibiotic + Ramizol, mean of all pairwise combinations): 1.1
